Measured values from paper PMC8811960, “A Novel 2-Carbon-Linked Dimeric Artemisinin With Potent Antileukemic Activity and Favorable Pharmacology” (Frontiers in Oncology, 2022).
Where a name gives a salt, the structure may show the parent alone.

What was measured:
MOLM14 = experiment: alamarBlue growth inhibition, MOLM14; type: cell-based; details: Homo sapiens, MOLM-14; MOLM14, 48h, alamarBlue, mean of 2 independent assays ± SD; read-out: IC50
Experimental: (§1) Cytotoxicity was assessed using alamarBlue assays (Life Technologies, Grand Island, NY) following manufacturer’s guidelines. Cell death was verified by Annexin V/7-aminoactinomycin D (7AAD) staining (BioLegend, San Diego, CA) per manufacturer’s guidelines.
In this experiment, provided to show the entire concentration:response range, MOLM14 AML cells were cultured with a range of concentrations of artesunate (AS), ART838, ART631, and ART576 for 48h. Graph indicates growth inhibition relative to vehicle (DMSO)-treated controls by alamarBlue absorbance assays. Data points and error bars represent mean and SD of 3 independent experiments done in triplicate.

[1] = Stability in human plasma (EDTA); type: in vitro ADME; details: 10 µM, 37°C, 1h
Experimental: (§2) The metabolic stability of ART631 was assessed in human and mouse plasma and liver microsomes (LM). For phase I microsomal stability assays, analogs (10 µM in <1% acetonitrile) were incubated in PBS containing liver microsomes, with or without cofactors ([22]). Microsomal controls (without cofactors) were used to determine non-enzymatic degradation. All experiments were incubated at 37°C for 1h and performed in duplicate. Reactions were stopped with acetonitrile and analyzed as described below.
(§3) ART631 was extracted from 25 µL plasma or microsomal solutions with 100 µL acetonitrile containing artemisinin (i.e. the natural product) as internal standard. […] Mobile phase A was ammonium acetate (2mM) containing 0.1% formic acid, and mobile phase B was acetonitrile containing 0.1% formic acid. The gradient started with mobile phase B and was held at 40% for 0.5 minutes with a flow rate of 0.4 mL/min, then increased to 100% over 1.5 minutes and held for 2.0 minutes, and finally returned back to 40% mobile phase B and allowed to equilibrate for 2.0 minutes. An AB Sciex 5500 triple quadrupole mass spectrometer operated in positive electrospray ionization mode was used for the detection of ART631. For stability studies, the ratio of ART631 to the internal standard, artemisinin, was assessed. […]

U937 = experiment: alamarBlue growth inhibition, U937; type: cell-based; details: Homo sapiens, U-937, U937, 48h, mean of 2 independent assays ± SD
Experimental: as §1

THP1 = experiment: alamarBlue growth inhibition, THP1; type: cell-based; details: Homo sapiens, THP-1, THP1, 48h, mean of 2 independent assays ± SD
Experimental: as §1

[2] = Phase I microsomal stability, mouse liver microsomes; type: in vitro ADME
Experimental: as §2
(§4) ART631 was extracted from 25 µL plasma or microsomal solutions with 100 µL acetonitrile containing artemisinin (i.e. the natural product) as internal standard. […] Mobile phase A was ammonium acetate (2mM) containing 0.1% formic acid, and mobile phase B was acetonitrile containing 0.1% formic acid. The gradient started with mobile phase B and was held at 40% for 0.5 minutes with a flow rate of 0.4 mL/min, then increased to 100% over 1.5 minutes and held for 2.0 minutes, and finally returned back to 40% mobile phase B and allowed to equilibrate for 2.0 minutes. An AB Sciex 5500 triple quadrupole mass spectrometer operated in positive electrospray ionization mode was used for the detection of ART631. For stability studies, the ratio of ART631 to the internal standard, artemisinin, was assessed. Calibration curves for ART631 were computed using the ratio of the peak area to that of the internal standard by using a quadratic equation with a 1/x^2 weighting function over the range of 8-1585 nM with dilutions of up to 1:10 (v/v).

10 human AML cell lines = experiment: alamarBlue growth inhibition, panel of 10 human AML cell lines; type: cell-based
Experimental: as §1
Cell lines with adverse risk cytogenetic and molecular features, e.g. MLL rearrangements (ML2, MOLM14, MV4;11, THP1), FLT3-ITD (MOLM14, MV4;11), TP53 mutations (KG1a, ML2, THP1, U937), and NRAS/KRAS mutations (ML2, THP1), were among those exquisitely sensitive to ART631, with IC50s < 50 nM. The K562 cell line was the only exception, as it was resistant to all 3 of these ARTs. Based on this in vitro activity data combined with the drug stability data described below, ART631 was prioritized over ART576 for further in vitro and in vivo antileukemic efficacy experiments here ( Table 2 ).

K562 = experiment: alamarBlue growth inhibition, K562; type: cell-based; details: Homo sapiens, K562, 48h, mean of 2 independent assays ± SD
Experimental: as §1

MV4;11 = experiment: alamarBlue growth inhibition, MV4;11; type: cell-based; details: Homo sapiens, MV4;11, 48h, mean of 2 independent assays ± SD
Experimental: as §1

HEL = experiment: alamarBlue growth inhibition, HEL; type: cell-based; details: Homo sapiens, 48h, mean of 2 independent assays ± SD
Experimental: as §1

KG1a = experiment: alamarBlue growth inhibition, KG1a; type: cell-based; details: Homo sapiens, KG-1a, 48h, mean of 2 independent assays ± SD
Experimental: as §1

TF1 = experiment: alamarBlue growth inhibition, TF1; type: cell-based; details: Homo sapiens, TF-1, TF1, 48h, mean of 2 independent assays ± SD
Experimental: as §1

[3] = Stability in mouse plasma (EDTA); type: in vitro ADME; details: 10 µM, 37°C, 1h
Experimental: as §2, §3

Stability in plasma = type: in vitro ADME, human and mouse; details: species not given
Experimental: as §2
We compared the in vitro stability of ART576 and ART631 ( Table 3 ). ART576 was stable in plasma (<10% degradation), but unstable with degradation of >70% in human liver microsomes with co-factors and >90% in mouse liver microsomes with co-factors ( Table 3 ).

HL60 = experiment: alamarBlue growth inhibition, HL60; type: cell-based; details: Homo sapiens, HL-60, HL60, 48h, mean of 2 independent assays ± SD
Experimental: as §1

[4] = Phase I microsomal stability, human liver microsomes; type: in vitro ADME
Experimental: as §2, §4

ML2 = experiment: alamarBlue growth inhibition, ML2; type: cell-based; details: Homo sapiens, ML-2, ML2, 48h, mean of 2 independent assays ± SD
Experimental: as §1

DDIT3 = experiment: qRT-PCR for DDIT3 mRNA; type: cell-based, human; details: MOLM14, 18h, ART631 200 nM, ART838 200 nM, AS 10 uM, similar results in MV4;11 and ML2
Experimental: Cells were pre-treated with […] ROS detection reagent 5-(and 6-)-chloromethyl-2’,7’-dichlorodihydrofluorescein diacetate (CM-H2DCFDA, Life Technologies) for 30 min, followed by the iron chelator deferoxamine mesylate (DFO; 11 mM) for 60 min. Cells were then treated with ART631 (200 nM) or DMSO control for 18h, with subsequent analysis by flow cytometry. Western blotting and quantitative reverse transcription PCR (qRT-PCR) to assess for molecular markers of ROS-mediated apoptosis were performed as previously described ([20]).
(§5) Figure 4 ART631 elevated ROS and CHOP levels and reduced MCL1 expression in MOLM14 AML cells. (A) MOLM14 AML cells were pre-treated with ROS detection reagent CM-H2DCFDA (5 mM) for 30 min, pre-treated with deferoxamine mesylate (DFO; 11 mM) for 60 min, and then treated with ART631 (200 nM) or DMSO control for 18h. They were then analyzed by flow cytometry. Graph represents %CM-H2DCFDA fluorescence compared to vehicle (DMSO) control treated cells. Error bars represent SD from 3 independent experiments. (B) MOLM14 AML cells were treated for 18h with vehicle, AS (10 uM), ART838 (200 nM), ART631 (200 nM), cytarabine (AraC; 150 nM), or SOR (5 uM). Protein was isolated and western blotted for MCL1, BCL2, CHOP, and β-actin. (C) MOLM14 cells were treated as in (B) for 18h, total RNA isolated, cDNA synthesized, and SYBR Green qRT-PCR performed in triplicates. Ct values were normalized to housekeeping gene GAPDH and fold change shown relative to vehicle (DMSO) control. Error bars represent SD from 3 independent experiments done in triplicate.

[5] = test system: MOLM14, MV4;11, and HL60 human AML cells; experiment: Annexin V/7-AAD cell viability and apoptosis; type: cell-based; details: 30-45 min pre-incubation with 10 nM QVD
Experimental: as §1
MOLM14, MV4;11, and HL60 human AML cells were assessed for cell viability and caspase-dependent apoptosis following treatment with ART631 (200 nM), VEN (50 nM), SOR (5 µM), and combinations thereof.
Figure 3 ART631-based combination treatments reduced cell viability in AML cell lines. MOLM14, MV4;11, and HL60 AML cells were each treated for 18h with vehicle (DMSO) control, ART631 alone (200 nM), VEN alone (50 nM), SOR alone (5 uM), and 2- and 3-drug combinations, all with and without a 30-45 min pre-incubation with 10 nM pan-caspase inhibitor QVD-OPh (QVD). Treated cells were stained with 2.5 ug/mL 7-aminoactinomycin D (7-AAD) and 0.5 ug/mL allophycocyanin (APC)-conjugated Annexin V in Annexin V binding buffer and analyzed by flow cytometry. Graphs indicate % cell viability based on Annexin V/7-AAD dual staining. For MOLM14 and MV4;11, means and SDs shown are based on 3 independent experiments. HL60 cell data is from one experiment done in triplicate.

[6] = test system: MOLM14, MV4;11, and HL60 human AML cells; parameters: method as in PMID 33560385; details: ART631 200 nM, VEN 50 nM, SOR 5 µM; MOLM14, MV4;11, HL60; cited from earlier work
MOLM14 cells = experiment: Total cellular ROS (CM-H2DCFDA flow cytometry); type: cell-based, human; details: MOLM14, DFO 11 uM, 60 min pre-treatment
Experimental: […] Cells were then treated with ART631 (200 nM) or DMSO control for 18h, with subsequent analysis by flow cytometry. Western blotting and quantitative reverse transcription PCR (qRT-PCR) to assess for molecular markers of ROS-mediated apoptosis were performed as previously described ([20]).
as §5, with “(A) MOLM14 AML cells were pre-treated with ROS detection reagent CM-H2DCFDA (5 mM) for 30 min, pre-treated with deferoxamine mesylate (DFO; 11 mM) for 60 min, and then treated with ART631 (200 nM) or DMSO control for 18h.” left out

[7] = 10 µM, 37°C, 1h, with cofactors
[8] = 10 µM, 37°C, 1h, without cofactors
[9] = NADPH-dependent phase I metabolism

C[C@@H]1CCC2[C@@H](C)[C@@H](C(=O)C[C@H]3O[C@@H]4O[C@@]5(C)CCC6[C@H](C)CCC([C@H]3C)[C@]64OO5)O[C@@H]3O[C@@]4(C)CCC1[C@@]23OO4 (stereo partly drawn) [ART576]
IC50 (MOLM14): 0.043 ± 0.007 µM
percentage remaining, Plasma (EDTA) Human [1]: 91%
IC50 (U937): 0.023 ± 0.001 µM
IC50 (THP1): > 1 µM
percentage remaining, Phase I Metabolism MLM NADPH(+) [2, 7]: 7%
percentage remaining, Phase I Metabolism MLM NADPH(-) [2, 8]: 96%
degradation in mouse liver microsomes with co-factors [2, 9]: > 90%
number of human AML cell lines whose growth was inhibited (10 human AML cell lines; of 10 human AML cell lines tested): 8
IC50 (10 human AML cell lines; range over the inhibited cell lines of 10 human AML cell lines, read-out: IC50 range): 0.023 to 0.105 µM
IC50 (K562): > 1 µM
IC50 (MV4;11): 0.038 ± 0.01 µM
IC50 (HEL): 0.08 ± 0.019 µM
IC50 (KG1a): 0.064 ± 0.004 µM
IC50 (TF1): 0.049 ± 0.012 µM
percentage remaining, Plasma (EDTA) Mouse [3]: 101%
degradation in plasma (Stability in plasma): < 10%
IC50 (HL60): 0.072 ± 0.018 µM
percentage remaining, Phase I Metabolism HLM NADPH(+) [4, 7]: 26%
percentage remaining, Phase I Metabolism HLM NADPH(-) [4, 8]: 89%
degradation in human liver microsomes with co-factors [4, 9]: > 70%
IC50 (ML2): 0.105 ± 0.012 µM

C[C@H]1[C@H](OC(=O)CCC(=O)O)O[C@@H]2O[C@@]3(C)CC[C@H]4[C@H](C)CC[C@@H]1[C@@]24OO3 [AS, artesunate, reference compound]
IC50 (MOLM14): 0.89 ± 0.099 µM
IC50 (U937): 0.521 ± 0.096 µM
IC50 (THP1): > 10 µM
IC50 (K562): > 10 µM
IC50 (MV4;11): 0.61 ± 0.03 µM
IC50 (HEL): 1.11 ± 0.093 µM
IC50 (KG1a): 2.6 ± 0.458 µM
IC50 (TF1): 1.72 ± 0.302 µM
DDIT3 mRNA (DDIT3): increased
IC50 (HL60): 1.06 ± 0.083 µM
IC50 (ML2): 1.58 ± 0.094 µM

CC(C)[C@H](NC(=O)c1ccc2ccccc2n1)C(=O)N[C@@H](CC(=O)O)C(=O)COc1c(F)cccc1F [QVD-OPh]
effect of pre-treatment on apoptosis and cell death for all drugs and combinations [5]: almost fully inhibited

CNC(=O)c1cc(Oc2ccc(NC(=O)Nc3ccc(Cl)c(C(F)(F)F)c3)cc2)ccn1 [SOR, sorafenib]
cell death as single agents [6]: less than 15%

CC1(C)CCC(CN2CCN(c3ccc(C(=O)NS(=O)(=O)c4ccc(NCC5CCOCC5)c([N+](=O)[O-])c4)c(Oc4cnc5[nH]ccc5c4)c3)CC2)=C(c2ccc(Cl)cc2)C1 [VEN, venetoclax]
cell death as single agents [6]: less than 15%

CC(=O)N(O)CCCCCNC(=O)CCC(=O)N(O)CCCCCNC(=O)CCC(=O)N(O)CCCCCN [deferoxamine mesylate, reference compound]
effect of pre-treatment on ROS generation by ART631 (MOLM14 cells): diminished
